Source: US8481028B2, “Compositions for preparing a coffee beverage comprising hydrolysed chlorogenic acid” (Nestec S.A., priority 2008, dated 2013)

Experiments:
[1] = tested on: Lactobacillus johnsonii (CNCM I-1225); experiment: Gastric small-intestinal model (TIM), hydrolysis of 5-CQA during simulated digestion; conditions: 6 h digestion, with addition of L. johnsonii
Procedure: The gastric small-intestinal model, TIM-1, comprises four connected compartments that represent the stomach, duodenum, jejunum and ileum, respectively. Each compartment consists of a glass outer wall with a flexible inner wall. The flexible wall is surrounded by water at 37° C. to squeeze the walls, which ensures mixing of the food with the secreted enzymes by peristaltic movements in the gastro-intestinal tract.
The experiments in the model were performed under average physiological conditions of the gastro-intestinal tract. During the experiments, the temperature was kept at 37° C. and salivary, gastric, biliary, and pancreatic secretions were simulated. The digestion process in the model was monitored for 6 h. During the first 3.5 h, the gastric content was gradually delivered into the small intestine “pyloric valve”. […]
4.5 g of NESCAFE PROTECT® (a co-extract of green and roasted coffee beans) were dissolved in 310 ml acetate buffer (20 mM, pH 6.5). […] After 6 h experiment, the residues from the compartments of the stomach, duodenum, jejunum and ileum were analysed to calculate the mass balance of chlorogenic acids. […] After 6 h, the residues from the compartments of the stomach, duodenum, jejunum and ileum were analysed by HPLC to calculate the mass balance of 5-caffeoyl quinic acid.

[2] = tested on: spray-dried preparation of Lactobacillus johnsonii (CNCM I-1225); experiment: Treatment of green coffee extract with spray-dried preparation of L. johnsonii, HPLC
Procedure: 30 mg of a dried green coffee extract was dissolved in 1 ml phosphate buffer (50 mM, pH 7.0) or in 1 ml water. To this solution, 10 mg of a spray-dried preparation of Lactobacillus johnsonii (3.3 E9 cfu/g) was added. The mixture was then incubated at 37° C. and samples were withdrawn at different reaction times. After centrifugation (3000 g, 5 min) and filtration (0.45 μm pore size syringe filters, Millipore SLHA 025 BS) the samples were analysed by HPLC.
(§1) Coffee samples were diluted to 1% w/w and analyzed by RP-HPLC on a CC 250/4 Nucleosil 100-5-C18 column (Macherey-Nagel). The eluent system was Millipore water, 0.1% TFA and CH3CN at a flow rate of 1 mL/min. The method allowed the simultaneous determination of caffeoyl quinic acids (CQA), feruloyl quinic acids (FQA), di-caffeoyl quinic acids (diCQA), feruloyl quinic acid-lactones, caffeic acid (CA) and ferulic acid (FA) (absorbance at 325 nm) using external standard calibration curves. Results were expressed relative to the reference at time 0 (t0) or to the reference at the same time without bacteria.

Chlorogenate esterase = experiment: Incubation of coffee extracts with chlorogenate esterase, HPLC; format: biochemical, Aspergillus japonicus
Procedure: as §1
Chlorogenate esterase (24 U/g), derived from Aspergillus japonicus (Kikkoman, Japan). Tannase from Aspergillus oryzae (Kikkoman, Japan) Preparation of Bacteria Cells
A solution of chlorogenate esterase (25 mg) in 200 μl phosphate buffer (pH 7.0) was added to 800 μl of a coffee solution (3%). The mixture was then incubated at 37° C. for 4 h, 16 h and 24 h. After reaction time, the enzymatic activity was stopped by heat treatment (3 min, 90° C.) and the mixture was filtered before analysis.

[3] = tested on: Bifidobacterium lactis BB12 (CNCM I-3446); experiment: Treatment of coffee extracts with bacteria cells (B. lactis), HPLC
Procedure: as §1
(§2) Tested strains were harvested (centrifugation at 5000 g for 10 min) after having well reached stationary phase, corresponding to 16 hours of incubation in culture medium at 37° C. in anaerobic atmosphere without agitation. For a first activation of the strains, frozen stock cultures were inoculated in fresh media and grown overnight. This pre-culture was used to inoculate the culture.
(§3) After culture of bacteria and centrifugation, the pellets were resuspended in phosphate buffer (pH 7.0) at a concentration of 0.61 g/ml. To 200 μl of this cells preparation, 800 μl of a coffee solution (3%) was added and the mixture was incubated at 37° C. for 4 h, 16 h and 24 h.

[4] = tested on: Lactobacillus johnsonii (CNCM I-1225); experiment: Treatment of coffee extracts with bacteria cells (L. johnsonii), HPLC
Procedure: as §1, §2, §3

[5] = tested on: Lactobacillus johnsonii (CNCM I-1225) fresh cells; experiment: Treatment of NESCAFE PROTECT with L. johnsonii fresh cells, HPLC of chlorogenic and phenolic acids
Procedure: (§4) Cells of L. johnsonii (CNCM I-1225) were grown (7.0 E08 cfu/ml) and centrifuged (5000 g, 10 min), the pellets were resuspended in phosphate buffer (50 mM, pH 7.0) at a concentration of 0.61 g/ml. […] Samples were withdrawn at different reaction times, centrifuged (3000 g, 5 min) and filtered through 0.45 μm pore size syringe filters (Millipore SLHA 025 BS) and analysed by HPLC.
A reaction control was run in parallel under the same reaction conditions but without bacteria.
as §1

[6] = tested on: concentrated preparation of Lactobacillus johnsonii (CNCM I-1225); experiment: Treatment of NESCAFE with concentrated preparation of L. johnsonii, HPLC
Procedure: 400 mg of NESCAFE SPECIAL FILTRE® (a dried extract of roasted coffee beans) were dissolved in 1 ml of boiling water and the solution was cooled to 37° C. at room temperature. To 250 μl of this coffee solution, different amounts of concentrated preparation of Lactobacillus johnsonii (50 μl, 100 μl, 350 μl, 750 μl) were added and the volume was adjusted to 1 ml with water. The mixtures were than incubated at 37° C. for 2 h and 4 h. After centrifugation (3000 g, 5 min) and filtration the samples were analysed by HPLC.
as §1

[7] = tested on: spray-dried preparation of Lactobacillus johnsonii (CNCM I-1225); experiment: Treatment of NESCAFE PROTECT with spray-dried preparation of L. johnsonii, HPLC
Procedure: To this solution, 10 mg of a spray-dried preparation of Lactobacillus johnsonii (CNCM I-1225) (3.3 E9 cfu/g) were added. The mixture was then incubated at 37° C. and samples were withdrawn at different reaction times. After centrifugation (3000 g, 5 min) and filtration (0.45 μm pore size syringe filters, Millipore SLHA 025 BS) the samples were analysed by HPLC.
as §1

[8] = tested on: Lactobacillus johnsonii (CNCM I-1225) extract (lysed cells); experiment: Treatment of NESCAFE PROTECT with L. johnsonii extract (lysed cells), HPLC; format: biochemical
Procedure: as §4, with “g/ml. The cells were then lysed using the glass-beads method. 600 μl of cells preparation were put in screw-cap tubes and 600 μl of glass-beads were added at 0° C. The tubes were then put into a Mini-Beadbeater for 1 min of intense shaking, cooled in ice, and put another 1 min in the Mini-Beadbeater.” for “g/ml.”, “min),” for “min) and”
as §1

For `O=C(/C=C/c1ccc(O)c(O)c1)O[C@@H]1C[C@@](O)(C(=O)O)C[C@@H](O)[C@@H]1O` [5-CQA, 5-caffeoyl quinic acid], the “% hydrolysis of 5-CQA (% hydrolysed of total 5-CQA present in the samples)” value [1] was 48%.
For `O=C(O)/C=C/c1ccc(O)c(O)c1` [CA, caffeic acid], the “% relative to untreated control at t = 0” value ([2]; 4 h) was 2673%, the “% relative to untreated control at t = 0” value ([2]; 6 h) was 3762% and the “% relative to untreated control at t = 0” value ([2]; 16 h) was 5182%. For the same compound, the “% relative to untreated control at t = 0” value ([2]; 24 h) was 6145%, the “% relative to untreated control at t = 0” value (Chlorogenate esterase; NESCAFE PROTECT + Chlorogenate esterase, 4 h) was 10879% and the “% relative to untreated control at t = 0” value (Chlorogenate esterase; NESCAFE PROTECT + Chlorogenate esterase, 16 h) was 10198%. For the same compound, the “% relative to untreated control at t = 0” value (Chlorogenate esterase; NESCAFE PROTECT + Chlorogenate esterase, 24 h) was 10750%, the “% relative to untreated control at t = 0” value (Chlorogenate esterase; green coffee extract + Chlorogenate esterase, 4 h) was 18917% and the “% relative to untreated control at t = 0” value (Chlorogenate esterase; green coffee extract + Chlorogenate esterase, 16 h) was 17275%. The “% relative to untreated control at t = 0” value (Chlorogenate esterase; green coffee extract + Chlorogenate esterase, 24 h) was 18318%, the “% relative to untreated control at t = 0” value ([3]; NESCAFE PROTECT + Bifidobacterium lactis, 4 h) was 968% and the “% relative to untreated control at t = 0” value ([3]; NESCAFE PROTECT + Bifidobacterium lactis, 16 h) was 2258%. The “% relative to untreated control at t = 0” value ([3]; NESCAFE PROTECT + Bifidobacterium lactis, 24 h) was 2840%, the “% relative to untreated control at t = 0” value ([3]; green coffee extract + Bifidobacterium lactis, 4 h) was 1521% and the “% relative to untreated control at t = 0” value ([3]; green coffee extract + Bifidobacterium lactis, 16 h) was 4182%. For the same compound, the “% relative to untreated control at t = 0” value ([3]; green coffee extract + Bifidobacterium lactis, 24 h) was 5283%, the “% relative to untreated control at t = 0” value ([4]; NESCAFE PROTECT + Lactobacillus johnsonii, 4 h) was 7942% and the “% relative to untreated control at t = 0” value ([4]; NESCAFE PROTECT + Lactobacillus johnsonii, 16 h) was 9429%. The “% relative to untreated control at t = 0” value ([4]; NESCAFE PROTECT + Lactobacillus johnsonii, 24 h) was 9933%, the “% relative to untreated control at t = 0” value ([4]; green coffee extract + Lactobacillus johnsonii, 4 h) was 12505% and the “% relative to untreated control at t = 0” value ([4]; green coffee extract + Lactobacillus johnsonii, 16 h) was 17148%. The “% relative to untreated control at t = 0” value ([4]; green coffee extract + Lactobacillus johnsonii, 24 h) was 18107%, the “Concentration in % relative to untreated reference at t = 0” value ([5]; 6 h, cell preparation 100 uL) was 10111% and the “Concentration in % relative to untreated reference at t = 0” value ([5]; 6 h, cell preparation 350 uL) was 14282%. The “Concentration in % relative to untreated reference at t = 0” value ([5]; 6 h, cell preparation 750 uL) was 13215%, the “Concentration in % relative to untreated reference at t = 0” value ([5]; 24 h, cell preparation 100 uL) was 13661% and the “Concentration in % relative to untreated reference at t = 0” value ([5]; 24 h, cell preparation 350 uL) was 15981%. The “Concentration in % relative to untreated reference at t = 0” value ([5]; 24 h, cell preparation 750 uL) was 13238%, the “% relative to untreated control at t = 0” value ([6]; cell amount 50 μL/1 mL, 2 h) was 1737% and the “% relative to untreated control at t = 0” value ([6]; cell amount 50 μL/1 mL, 4 h) was 1763%. For the same compound, the “% relative to untreated control at t = 0” value ([6]; cell amount 100 μL/1 mL, 2 h) was 2885%, the “% relative to untreated control at t = 0” value ([6]; cell amount 100 μL/1 mL, 4 h) was 2803% and the “% relative to untreated control at t = 0” value ([6]; cell amount 350 μL/1 mL, 2 h) was 5752%. The “% relative to untreated control at t = 0” value ([6]; cell amount 350 μL/1 mL, 4 h) was 4491%, the “% relative to untreated control at t = 0” value ([6]; cell amount 750 μL/1 mL, 2 h) was 7292% and the “% relative to untreated control at t = 0” value ([6]; cell amount 750 μL/1 mL, 4 h) was 5514%. For the same compound, the “% relative to untreated control at t = 0” value ([7]; 2 h) was 3598%, the “% relative to untreated control at t = 0” value ([7]; 6 h) was 6140% and the “% relative to untreated control at t = 0” value ([7]; 24 h) was 7879%. The “Concentration in % relative to untreated reference at t = 0” value ([8]; 2 h, cell preparation 100.0 uL) was 10729%, the “Concentration in % relative to untreated reference at t = 0” value ([8]; 2 h, cell preparation 350.0 uL) was 13901% and the “Concentration in % relative to untreated reference at t = 0” value ([8]; 6 h, cell preparation 100.0 uL) was 12581%. For the same compound, the “Concentration in % relative to untreated reference at t = 0” value ([8]; 6 h, cell preparation 350.0 uL) was 16300%.
